Laboratory results as given in patent US20210179666A1, “CYCLIC PEPTIDES AND METHODS OF USE THEREOF” (Regents of the University of Minnesota, priority 2019, published 2021).
“And” between values parts separate entries of the source, which are not always exact repeats. Identical values can stand only once. Square brackets hold non-standard residues; d marks the D form. Peptide text beside a SMILES is read from it. Dap = NC[C@H](N)C(=O)O

Key:
mMC5R [1] = molecular target: T1, mMC5R (Mus musculus, UniProt P41149)
T1 sequence (P41149 whole entry): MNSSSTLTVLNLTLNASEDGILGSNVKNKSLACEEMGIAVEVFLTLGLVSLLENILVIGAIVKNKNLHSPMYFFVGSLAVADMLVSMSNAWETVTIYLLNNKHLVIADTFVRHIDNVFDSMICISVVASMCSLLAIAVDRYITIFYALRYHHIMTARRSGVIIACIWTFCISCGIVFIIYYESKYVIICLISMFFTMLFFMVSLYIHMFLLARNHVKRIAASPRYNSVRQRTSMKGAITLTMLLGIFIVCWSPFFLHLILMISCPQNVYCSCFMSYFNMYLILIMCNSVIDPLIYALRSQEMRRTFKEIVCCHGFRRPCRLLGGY

mMC1R [2] = molecular target: T2, mMC1R (Mus musculus, UniProt Q01727); experiment: cAMP AlphaScreen bioassay, HEK293 cells stably expressing mMC1R; conditions: for mMC1R percent maximal stimulatory response: @ 100 μM, EC50 not determinable
T2 sequence (Q01727 whole entry): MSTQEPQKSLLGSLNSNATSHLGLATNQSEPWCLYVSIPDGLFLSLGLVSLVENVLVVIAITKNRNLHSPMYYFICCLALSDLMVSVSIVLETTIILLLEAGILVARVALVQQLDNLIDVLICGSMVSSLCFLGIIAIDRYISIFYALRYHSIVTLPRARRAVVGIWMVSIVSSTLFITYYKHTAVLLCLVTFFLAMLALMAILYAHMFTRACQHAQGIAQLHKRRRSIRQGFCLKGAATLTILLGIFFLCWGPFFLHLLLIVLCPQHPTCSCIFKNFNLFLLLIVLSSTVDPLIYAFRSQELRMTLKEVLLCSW

hMC4R [3] = molecular target: T3, hMC4R (Homo sapiens, UniProt P32245); experiment: cAMP AlphaScreen bioassay, HEK293 cells stably expressing hMC4R; assay type: cell-based; set-up: expressed in transfected cells; conditions: for Observed Inverse Agonism?: hMC4R, cAMP; for hMC4R pA2: antagonist pA2, Schild analysis with agonist NDP-MSH, ± SEM, <5.0 = no antagonist potency up to 10,000 nM
T3 sequence (P32245 whole entry): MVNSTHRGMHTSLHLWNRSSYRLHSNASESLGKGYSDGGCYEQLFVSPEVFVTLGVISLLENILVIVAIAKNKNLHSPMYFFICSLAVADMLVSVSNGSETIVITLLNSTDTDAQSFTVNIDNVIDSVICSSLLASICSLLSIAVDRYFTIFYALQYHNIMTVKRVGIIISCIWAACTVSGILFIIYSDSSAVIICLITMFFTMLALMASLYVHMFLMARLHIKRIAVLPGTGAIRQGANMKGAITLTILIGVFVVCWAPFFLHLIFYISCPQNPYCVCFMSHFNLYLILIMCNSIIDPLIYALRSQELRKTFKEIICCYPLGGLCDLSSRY

mMC3R [4] = molecular target: T4, mMC3R (Mus musculus, UniProt P33033); conditions: ± SEM; for mMC3R pA2: Example 1, antagonist, Schild analysis with NDP-MSH, <5.0 = no antagonist potency up to 10,000 nM
T4 sequence (P33033 whole entry): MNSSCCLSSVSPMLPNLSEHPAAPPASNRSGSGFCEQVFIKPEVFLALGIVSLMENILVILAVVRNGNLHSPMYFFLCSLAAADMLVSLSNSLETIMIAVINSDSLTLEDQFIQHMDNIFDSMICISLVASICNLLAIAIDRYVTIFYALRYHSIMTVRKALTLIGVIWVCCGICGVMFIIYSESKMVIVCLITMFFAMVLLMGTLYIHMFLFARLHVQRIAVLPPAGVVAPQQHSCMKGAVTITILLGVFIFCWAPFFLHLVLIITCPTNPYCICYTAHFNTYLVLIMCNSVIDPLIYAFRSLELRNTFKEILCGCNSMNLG

mMC4R [5] = molecular target: T5, mMC4R (Mus musculus, UniProt P56450); conditions: ± SEM; for mMC4R pA2: Example 1, antagonist, Schild analysis with NDP-MSH, <5.0 = no antagonist potency up to 10,000 nM
T5 sequence (P56450 whole entry): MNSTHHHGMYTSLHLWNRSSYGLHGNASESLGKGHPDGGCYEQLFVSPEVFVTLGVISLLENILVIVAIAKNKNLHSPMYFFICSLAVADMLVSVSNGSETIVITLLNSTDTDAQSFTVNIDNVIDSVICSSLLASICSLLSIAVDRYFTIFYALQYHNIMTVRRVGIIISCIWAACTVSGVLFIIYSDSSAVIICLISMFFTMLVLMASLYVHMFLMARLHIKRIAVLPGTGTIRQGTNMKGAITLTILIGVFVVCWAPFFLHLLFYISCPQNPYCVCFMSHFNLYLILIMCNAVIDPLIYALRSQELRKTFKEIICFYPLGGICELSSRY

mMC4R [6] = molecular target: T5, mMC4R; experiment: 125I-NDP-MSH competitive binding assay, transfected HEK293 cells, mMC4R; conditions: binding IC50 versus control 1 (Asn) or 2 (Dap)
hMC4R [7] = molecular target: T3, hMC4R; experiment: 125I-NDP-MSH competitive binding assay, transfected HEK293 cells, hMC4R; conditions: binding IC50 versus control 1 (Asn) or 2 (Dap)
mMC1R [8] = molecular target: T2, mMC1R; experiment: 125I-NDP-MSH competitive binding assay, transfected HEK293 cells, mMC1R; conditions: binding IC50 versus control 1 (Asn) or 2 (Dap)
mMC3R [9] = molecular target: T4, mMC3R; experiment: 125I-NDP-MSH competitive binding assay, transfected HEK293 cells, mMC3R; conditions: binding IC50 versus control 1 (Asn) or 2 (Dap)
mMC5R [10] = molecular target: T1, mMC5R; experiment: 125I-NDP-MSH competitive binding assay, transfected HEK293 cells, mMC5R; conditions: binding IC50 versus control 1 (Asn) or 2 (Dap)
[11] = Example 1, agonist, >100,000 = no agonist activity up to 100 μM

Row | Structure (SMILES) | Observed Inverse Agonism? (hMC4R [3]) | mMC3R pA2 (mMC3R [4]) | mMC4R pA2 (mMC4R [5]) | hMC4R pA2 (hMC4R [3]) | mMC4R Fold Diff (mMC4R [6]) | hMC4R Fold Diff (hMC4R [7]) | mMC1R Fold Diff (mMC1R [8]) | also measured
1 | C[C@@H]1NC(=O)CN(CCN)C(=O)[C@H](Cc2ccccc2)NC(=O)[C@H](Cc2ccccc2)NC(=O)[C@H](CCCNC(=N)N)NC(=O)[C@@H]2CCCN2C(=O)[C@H]2CCCN2C(=O)[C@H](Cc2ccccc2)NC1=O [MDE9-111c, c[Pro-Arg-Phe-Phe-NDab-Ala-Phe-DPro]] | – | – | – | – | – | – | – | mMC5R inverse agonist, percent decrease from basal (mMC5R [1]): −10%; mMC1R percent maximal stimulatory response (mMC1R [2]; Example 2): 60% @
2 | C[C@@H]1NC(=O)[C@H](CC(N)=O)NC(=O)[C@H](Cc2ccccc2)NC(=O)[C@H](Cc2ccccc2)NC(=O)[C@H](CCCNC(=N)N)NC(=O)[C@@H]2CCCN2C(=O)[C@H]2CCCN2C(=O)[C@H](Cc2ccccc2)NC1=O [MDE 6-82-3c, c[Pro-Arg-Phe-Phe-Asn-Ala-Phe-DPro]] | Yes | – | – | – | – | – | – | –
3 | CC(C)[C@@H]1NC(=O)[C@H](CN)NC(=O)[C@H](Cc2ccccc2)NC(=O)[C@H](Cc2ccccc2)NC(=O)[C@H](CCCNC(=N)N)NC(=O)[C@@H]2CCCN2C(=O)[C@H]2CCCN2C(=O)[C@H](Cc2ccccc2)NC1=O [ZMK 2-85, c[Pro-Arg-Phe-Phe-Dap-Val-Phe-DPro]] | Yes | 6.1 and 6.1 ± 0.03 | 7.5 | 7.6 and 7.6 ± 0.06 | – | – | – | mMC5R pA2 (mMC5R [1]; Example 1, antagonist, Schild analysis with NDP-MSH, ± SEM, reported herein for the first time): 6.3 and 6.3 ± 0.03
4 | C[C@@H]1NC(=O)[C@H](CC(N)=O)NC(=O)[C@H](Cc2ccccc2)NC(=O)[C@H](Cc2ccccc2)NC(=O)[C@H](Cc2c[nH]cn2)NC(=O)[C@@H]2CCCN2C(=O)[C@H]2CCCN2C(=O)[C@H](Cc2ccccc2)NC1=O [ZMK 2-96, c[Pro-His-Phe-Phe-Asn-Ala-Phe-DPro]] (cyclo(PHFFNAF[dP])) | Yes | – | 5.3 and 5.3 ± 0.1 | 5.8 and 5.8 ± 0.2 | 300 | 300 | – | –
5 | C[C@@H]1NC(=O)[C@H](CN)NC(=O)[C@H](Cc2ccccc2)NC(=O)[C@H](Cc2ccccc2)NC(=O)[C@H](Cc2c[nH]cn2)NC(=O)[C@@H]2CCCN2C(=O)[C@H]2CCCN2C(=O)[C@H](Cc2ccccc2)NC1=O [ZMK 2-99, c[Pro-His-Phe-Phe-Dap-Ala-Phe-DPro]] (cyclo(PHFF[Dap]AF[dP])) | No | 5.4 and 5.4 ± 0.1 | 6.0 and 6.0 ± 0.1 | 6.4 and 6.4 ± 0.09 | 500 | 400 | 5 | mMC3R Fold Diff (mMC3R [9]): 5; mMC5R Fold Diff (mMC5R [10]): 7
6 | C[C@@H]1NC(=O)[C@H](CC(N)=O)NC(=O)[C@H](Cc2ccccc2)NC(=O)[C@H](Cc2ccc(O)cc2)NC(=O)[C@H](CCCNC(=N)N)NC(=O)[C@@H]2CCCN2C(=O)[C@H]2CCCN2C(=O)[C@H](Cc2ccccc2)NC1=O [ZMK 2-110, c[Pro-Arg-Tyr-Phe-Asn-Ala-Phe-DPro]] (cyclo(PRYFNAF[dP])) | Yes | 5.8 and 5.8 ± 0.2 | 6.1 and 6.1 ± 0.03 | 6.5 and 6.5 ± 0.2 | 100 | 2000 | – | mMC5R pharmacology observed in agonist assay (Inverse Agonist) (mMC5R [1]; Example 1): Inverse
7 | C[C@@H]1NC(=O)[C@H](CC(N)=O)NC(=O)[C@H](Cc2ccccc2)NC(=O)[C@H](Cc2ccccc2)NC(=O)[C@H](CS)NC(=O)[C@@H]2CCCN2C(=O)[C@H]2CCCN2C(=O)[C@H](Cc2ccccc2)NC1=O [ZMK 3-18, c[Pro-Cys-Phe-Phe-Asn-Ala-Phe-DPro]] (cyclo(PCFFNAF[dP])) | No | – | 5.9 | 5.8 and 5.8 ± 0.2 | 90 | 300 | 3 | mMC3R EC50 (nM) (mMC3R [4]; [11]): unable to stimulate; mMC4R EC50 (nM) (mMC4R [5]; [11]): unable to stimulate; mMC5R pharmacology observed in agonist assay (Inverse Agonist) (mMC5R [1]; Example 1): inverse agonist activity; mMC5R inverse agonist, percent change from basal (mMC5R [1]; Example 1, @ 100 μM, no sigmoidal dose-response curve): −32%; mMC1R percent maximal stimulatory response (mMC1R [2]; Example 1, relative to NDP-MSH signal): 46%
8 | C[C@@H]1NC(=O)[C@H](CN)NC(=O)[C@H](Cc2ccccc2)NC(=O)[C@H](Cc2ccccc2)NC(=O)[C@H](CS)NC(=O)[C@@H]2CCCN2C(=O)[C@H]2CCCN2C(=O)[C@H](Cc2ccccc2)NC1=O [ZMK 3-20, c[Pro-Cys-Phe-Phe-Dap-Ala-Phe-DPro]] (cyclo(PCFF[Dap]AF[dP])) | No | – | – | – | 5200 | 2100 | 6 | hMC4R agonist stimulation (hMC4R [3]; up to 100 μM concentrations): unable to stimulate; mMC1R stimulation of the receptor, % of the NDP-MSH control (mMC1R [2]; full agonist, maximal stimulation): 98%; EC50 (mMC1R [2]; read-out: mMC1R EC50, Example 1, agonist, ± SEM, >100,000 = no agonist activity up to 100 μM): 4 µM; mMC3R Fold Diff (mMC3R [9]): 15
